We go through 13 compounds from US5413990A, “N-terminus modified analogs of LHRH” (Tap Pharmaceuticals Inc., priority 1993, dated 1995).

This experiment has as its target T1, LHRH (Rattus norvegicus, UniProt P30969).
T1 construct: evaluated in an in vitro test for LHRH antagonist potency (pA2); endogenous in cells; host or cells: pituitary cells (rat, from my own knowledge of the cited method)
T1 sequence (P30969 1-327): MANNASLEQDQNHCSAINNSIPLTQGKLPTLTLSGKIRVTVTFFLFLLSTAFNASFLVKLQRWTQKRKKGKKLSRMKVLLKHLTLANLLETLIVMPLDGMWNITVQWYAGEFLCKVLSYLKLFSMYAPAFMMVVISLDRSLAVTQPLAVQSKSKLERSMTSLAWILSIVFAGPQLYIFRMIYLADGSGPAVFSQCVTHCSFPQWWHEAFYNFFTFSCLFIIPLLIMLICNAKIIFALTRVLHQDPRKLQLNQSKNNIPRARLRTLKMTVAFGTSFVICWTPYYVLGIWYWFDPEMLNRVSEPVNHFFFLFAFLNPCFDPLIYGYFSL
In words: in vitro test for LHRH antagonist potency (pA2). It counts as cell-based. As to conditions: negative logarithm of the antagonist concentration required to shift the response curve produced by the agonist leuprolide to two-fold higher concentration. On the procedure:
Representative compounds of the present invention were evaluated in an in vitro test for LHRH antagonist potency (pA2). The test employed the method detailed in F. Haviv, et al. J. Med. Chem., 32:2340-2344 (1989). The values of pA2 are the negative logarithms of the concentration of the particular antagonist test compound required to shift the response curve produced by the agonist leuprolide to two-fold higher concentration. (Leuprolide is the LHRH agonist having the structure 5-oxo-Pro^1 -His^2 -Trp^3 -Ser^4 -Tyr^5 -D-Leu^6 -Leu^7 -Arg^8 -Pro^9 -NHEt and is disclosed and claimed in U.S. Pat. No. 4,005,063.) Typically pA2 values of 9.5 or greater are indicative of good LHRH antagonist potency, with values of 10.0 or greater being preferred.

Numbered stars: 1 amine (or outer) side, 2 acyl side, 3 side chain; on linkers, the order of the positions; unused ones are H or OH. Square brackets hold non-standard residues; d marks the D form. Peptide text beside a SMILES is read from it. * marks the point of attachment. X3 = NC(=O)N[C@H](Cc1ccc2ccccc2c1)C(=O)*; dPhe(4-Cl) = N[C@H](Cc1ccc(Cl)cc1)C(=O)O; NH(2-morpholinoethyl) = C(CN1CCOCC1)N*; d2Nal = N[C@H](Cc1ccc2ccccc2c1)C(=O)O; Cyclopentanecarbonyl = O=C(C1CCCC1)*; Lys(iPr) = CC(C)NCCCC[C@H](N)C(=O)O; NMeY = CN[C@@H](Cc1ccc(O)cc1)C(=O)O; Hydrocinnamoyl = O=C(CCc1ccccc1)*; dCit = NC(=O)NCCC[C@@H](N)C(=O)O; d3Pal = N[C@H](Cc1cccnc1)C(=O)O; NH(3-picolyl) = c1cncc(CN*)c1; Succinamoyl = NC(=O)CCC(=O)*; Nicotinoyl = O=C(c1cccnc1)*; X2 = O=C(CCc1ccc2ccccc2c1)*; PhAc = O=C(Cc1ccccc1)*; CO = O=C([*:1])[*:2]; Butyryl = CCCC(=O)*; Glycolyl = O=C(CO)*; X4 = N#CCC(=O)*

As to `CC(C)C[C@H](NC(=O)[C@@H](CCCNC(N)=O)NC(=O)[C@H](Cc1ccc(O)cc1)N(C)C(=O)[C@H](CO)NC(=O)[C@@H](Cc1cccnc1)NC(=O)[C@@H](Cc1ccc(Cl)cc1)NC(=O)[C@@H](Cc1ccc2ccccc2c1)NC(=O)NCc1cccnc1)C(=O)N[C@@H](CCCNC(=N)N)C(=O)N1CCC[C@H]1C(=O)N[C@H](C)C(N)=O` [Example 8f, N-(3-Pyridyhnethylaminocarbonyl)-D2Nal-D4ClPhe-D3Pal-Ser-NMeTyr-DCit-Leu-Arg-Pro-DAlaNH2] ({NH(3-picolyl)-CO}-[d2Nal][dPhe(4-Cl)][d3Pal]S[NMeY][dCit]LRP[dA]-NH2), the Kb (in general, the affinity of an antagonist, worked out from how it opposes an agonist) is 0.0363 nM. For `CC(C)C[C@H](NC(=O)[C@@H](CCCCNC(=O)c1cccnc1)NC(=O)[C@H](Cc1ccc(O)cc1)N(C)C(=O)[C@H](CO)NC(=O)[C@@H](Cc1cccnc1)NC(=O)[C@@H](Cc1ccc(Cl)cc1)NC(=O)[C@@H](Cc1ccc2ccccc2c1)NC(=O)C1CCCC1)C(=O)N[C@@H](CCCCNC(C)C)C(=O)N1CCC[C@H]1C(=O)N[C@H](C)C(N)=O` [Example 2g, N-Cyclopentylcarbonyl-D2Nal-D4ClPhe-D3Pal-Ser-NMeTyr-DLys(N-epsilon-Nicotinyl)-Leu-Lys(N-epsilon-lsopropyl)-Pro-DAlaNH 2] (Cyclopentanecarbonyl-[d2Nal][dPhe(4-Cl)][d3Pal]S[NMeY][dK](Nicotinoyl)L[Lys(iPr)]P[dA]-NH2), the Kb was 0.0708 nM. Regarding `CC(C)C[C@H](NC(=O)[C@@H](CCCNC(N)=O)NC(=O)[C@H](Cc1ccc(O)cc1)N(C)C(=O)[C@H](CO)NC(=O)[C@@H](Cc1cccnc1)NC(=O)[C@@H](Cc1ccc(Cl)cc1)NC(=O)[C@@H](Cc1ccc2ccccc2c1)NC(=O)CCC(N)=O)C(=O)N[C@@H](CCCNC(=N)N)C(=O)N1CCC[C@H]1C(=O)N[C@H](C)C(N)=O` [Example 5d, N-Succinamyl-D2Nal-D4ClPhe-D3Pal-Ser-NMeTyr-DCit-Leu-Arg-Pro-DAlaNH2] (Succinamoyl-[d2Nal][dPhe(4-Cl)][d3Pal]S[NMeY][dCit]LRP[dA]-NH2), the Kb was 0.00646 nM. As for `CCCC(=O)N[C@H](Cc1ccc2ccccc2c1)C(=O)N[C@H](Cc1ccc(Cl)cc1)C(=O)N[C@H](Cc1cccnc1)C(=O)N[C@@H](CO)C(=O)N(C)[C@@H](Cc1ccc(O)cc1)C(=O)N[C@H](CCCNC(N)=O)C(=O)N[C@@H](CC(C)C)C(=O)N[C@@H](CCCNC(=N)N)C(=O)N1CCC[C@H]1C(=O)N[C@H](C)C(N)=O` [Example 5c, N-Butyryl-D2Nal-D4ClPhe-D3Pal-Ser-NMeTyr-DCit-Leu-Arg-Pro-DAlaNH2] (Butyryl-[d2Nal][dPhe(4-Cl)][d3Pal]S[NMeY][dCit]LRP[dA]-NH2), the Kb was 0.00562 nM. For `CCNC(=O)N[C@H](Cc1ccc2ccccc2c1)C(=O)N[C@H](Cc1ccc(Cl)cc1)C(=O)N[C@H](Cc1cccnc1)C(=O)N[C@@H](CO)C(=O)N(C)[C@@H](Cc1ccc(O)cc1)C(=O)N[C@H](CCCNC(N)=O)C(=O)N[C@@H](CC(C)C)C(=O)N[C@@H](CCCNC(=N)N)C(=O)N1CCC[C@H]1C(=O)N[C@H](C)C(N)=O` [Example 8a, N-(Ethylaminocarbonyl)-D2Nal- D4ClPhe-D3Pal-Ser-NMeTyr-DCit-Leu-Arg-ProDAlaNH2] ({NHEt-CO}-[d2Nal][dPhe(4-Cl)][d3Pal]S[NMeY][dCit]LRP[dA]-NH2) the value was 0.0933 nM. For `CC(C)C[C@H](NC(=O)[C@@H](CCCCNC(=O)c1cccnc1)NC(=O)[C@H](Cc1ccc(O)cc1)N(C)C(=O)[C@H](CO)NC(=O)[C@@H](Cc1cccnc1)NC(=O)[C@@H](Cc1ccc(Cl)cc1)NC(=O)[C@@H](Cc1ccc2ccccc2c1)NC(=O)CCc1ccc2ccccc2c1)C(=O)N[C@@H](CCCCNC(C)C)C(=O)N1CCC[C@H]1C(=O)N[C@H](C)C(N)=O` [Example 2o, N-3(2-Naphthyl)propionyl-D2Nal-D4ClPhe-D3Pal-Ser-NMeTyr-DLys(N-epsilon-Nicotinyl)-Leu-Lys(N-epsilon-Isopropyl) -Pro-DAlaNH2] (X2-[d2Nal][dPhe(4-Cl)][d3Pal]S[NMeY][dK](Nicotinoyl)L[Lys(iPr)]P[dA]-NH2), the Kb was 0.0794 nM.

With `CC(C)C[C@H](NC(=O)[C@@H](CCCNC(N)=O)NC(=O)[C@H](Cc1ccc(O)cc1)N(C)C(=O)[C@H](CO)NC(=O)[C@@H](Cc1cccnc1)NC(=O)[C@@H](Cc1ccc(Cl)cc1)NC(=O)[C@@H](Cc1ccc2ccccc2c1)NC(N)=O)C(=O)N[C@@H](CCCNC(=N)N)C(=O)N1CCC[C@H]1C(=O)N[C@H](C)C(N)=O` [Example 7, N:(Aminocarbonyl)-D2Nal-D4ClPhe-D3 Pal-Ser- NMeTyr-DCit-Leu-Arg-ProDAIaNH2] (X3-[dPhe(4-Cl)][d3Pal]S[NMeY][dCit]LRP[dA]-NH2), the Kb was 0.00603 nM. Regarding `CC(C)C[C@H](NC(=O)[C@@H](CCCNC(N)=O)NC(=O)[C@H](Cc1ccc(O)cc1)N(C)C(=O)[C@H](CO)NC(=O)[C@@H](Cc1cccnc1)NC(=O)[C@@H](Cc1ccc(Cl)cc1)NC(=O)[C@@H](Cc1ccc2ccccc2c1)NC(=O)CO)C(=O)N[C@@H](CCCNC(=N)N)C(=O)N1CCC[C@H]1C(=O)N[C@H](C)C(N)=O` [Example 4, N-Glycolyl-D2Nal-D4ClPhe-D3Pal-Ser-NMeTyr-DCit-Leu-Arg-Pro-DAlaNH2] (Glycolyl-[d2Nal][dPhe(4-Cl)][d3Pal]S[NMeY][dCit]LRP[dA]-NH2), the Kb is 0.00661 nM. For `CC(C)C[C@H](NC(=O)[C@@H](CCCNC(N)=O)NC(=O)[C@H](Cc1ccc(O)cc1)N(C)C(=O)[C@H](CO)NC(=O)[C@@H](Cc1cccnc1)NC(=O)[C@@H](Cc1ccc(Cl)cc1)NC(=O)[C@@H](Cc1ccc2ccccc2c1)NC(=O)NCCN1CCOCC1)C(=O)N[C@@H](CCCNC(=N)N)C(=O)N1CCC[C@H]1C(=O)N[C@H](C)C(N)=O` [Example 8c, N-(Morpholinoethylaminocarbonyl)-D2Nal-D4ClPhe-D3Pal-Ser-NMeTyr-DCit-Leu-Arg-Pro-DAlaNH2] ({NH(2-morpholinoethyl)-CO}-[d2Nal][dPhe(4-Cl)][d3Pal]S[NMeY][dCit]LRP[dA]-NH2) the value was 0.049 nM; for `CC(C)C[C@H](NC(=O)[C@@H](CCCCNC(=O)c1cccnc1)NC(=O)[C@H](Cc1ccc(O)cc1)N(C)C(=O)[C@H](CO)NC(=O)[C@@H](Cc1cccnc1)NC(=O)[C@@H](Cc1ccc(Cl)cc1)NC(=O)[C@@H](Cc1ccc2ccccc2c1)NC(=O)Cc1ccccc1)C(=O)N[C@@H](CCCCNC(C)C)C(=O)N1CCC[C@H]1C(=O)N[C@H](C)C(N)=O` [Example 2k, N-Phenylacetyl-D2Nal-D4ClPhe-D3Pal-Ser-NMeTyr-DLys(N-epsilon-Nicotinyl)-Leu-Lys(N-epsilon-Isopropyl)-Pro-DAlaNH2] (PhAc-[d2Nal][dPhe(4-Cl)][d3Pal]S[NMeY][dK](Nicotinoyl)L[Lys(iPr)]P[dA]-NH2), 0.0141 nM. As to `CC(C)C[C@H](NC(=O)[C@@H](CCCCNC(=O)c1cccnc1)NC(=O)[C@H](Cc1ccc(O)cc1)N(C)C(=O)[C@H](CO)NC(=O)[C@@H](Cc1cccnc1)NC(=O)[C@@H](Cc1ccc(Cl)cc1)NC(=O)[C@@H](Cc1ccc2ccccc2c1)NC(=O)CCc1ccccc1)C(=O)N[C@@H](CCCCNC(C)C)C(=O)N1CCC[C@H]1C(=O)N[C@H](C)C(N)=O` [Example 2l, N-3-Phenylpropionyl-D2Nal-D4ClPhe-D3Pal-Ser-NMeTyr-DLys(N-epsilon-Nicotinyl)-Leu-Lys(N-epsilon-Isopropyl)-Pro-DAlaNH 2] (Hydrocinnamoyl-[d2Nal][dPhe(4-Cl)][d3Pal]S[NMeY][dK](Nicotinoyl)L[Lys(iPr)]P[dA]-NH2), the Kb was 0.0126 nM. In the case of `CC(C)C[C@H](NC(=O)[C@@H](CCCCNC(=O)c1cccnc1)NC(=O)[C@H](Cc1ccc(O)cc1)N(C)C(=O)[C@H](CO)NC(=O)[C@@H](Cc1cccnc1)NC(=O)[C@@H](Cc1ccc(Cl)cc1)NC(=O)[C@@H](Cc1ccc2ccccc2c1)NC(=O)CC#N)C(=O)N[C@@H](CCCCNC(C)C)C(=O)N1CCC[C@H]1C(=O)N[C@H](C)C(N)=O` [Example 2e, N-Cyanoacetyl-D2Nal-D4ClPhe-D3Pal-Ser-NMeTyr-DLys(N-epsilon-Nicotinyl)-Leu- Lys(N-epsilon-Isopropyl)-Pro-DAlaNH2] (X4-[d2Nal][dPhe(4-Cl)][d3Pal]S[NMeY][dK](Nicotinoyl)L[Lys(iPr)]P[dA]-NH2), the Kb is 0.00316 nM. For the compound `CC(C)C[C@H](NC(=O)[C@@H](CCCNC(N)=O)NC(=O)[C@H](Cc1ccc(O)cc1)N(C)C(=O)[C@H](CO)NC(=O)[C@@H](Cc1cccnc1)NC(=O)[C@@H](Cc1ccc(Cl)cc1)NC(=O)[C@@H](Cc1ccc2ccccc2c1)NC(=O)Cc1ccccc1)C(=O)N[C@@H](CCCNC(=N)N)C(=O)N1CCC[C@H]1C(=O)N[C@H](C)C(N)=O` [Example 5f, NPhenylacetyl-D2Nal-D4ClPhe-D3Pal-Ser-NMeTyr-DCit-Leu-Arg-Pro-DAlaNH2] (PhAc-[d2Nal][dPhe(4-Cl)][d3Pal]S[NMeY][dCit]LRP[dA]-NH2), the Kb is 0.0158 nM.
